Measured values taken from patent publication US20060216299A1, “Cell cycle targets and peptides” (Rigel Pharmaceuticals, Inc., priority 2002, published 2006).

System: A549.tTA cells expressing #38 and #41
Experiment: Role of farnesylation in cellular localization of GFP fused #38
Type: cell-based, human
Details: 2 μM L-744,832, 48 hours
Protocol: #38 has a CAAX box motif in the C-terminus. A 15-carbon farnesyl or 20-carbon geranylgeranyl isoprenoid is linked to the Cys in a CAAX box motif by Farnesyl transferase or Geranylgeranyl transferase, respectively (Fu, H. W. et al., Recent Prog Horm Res, 54:315-342; discussion 342-313 (1999)). The role of farnesylation in cellular localization of #38 was examined. A549.tTA cells expressing #38 and #41 were treated with a peptidomimetic farnesyltransferase specific inhibitor, L-744,832 for 48 hours.

SMILES: CC[C@H](C)[C@@H](CO[C@@H](Cc1ccccc1)C(=O)N[C@@H](CCS(C)(=O)=O)C(=O)OC(C)C)NC[C@@H](N)CS [L-744,832]
- cellular localization of #38 in the presence of inhibitor: completely abolished
